Source: patent publication US7507806B2, “Nucleic acid sequences of human Rif1” (The Rockefeller University, priority 2004, dated 2009)

Legend:
Type in all cases: cell-based, human
[1] = system: 53BP1 foci; assay: 53BP1 foci by indirect immunofluorescence after IR or UV; details: aphidicolin after the UV irradiation
Description: (§1) For IR treatment, cells were exposed to gamma(λ)-irradiation using a Cs^137 source at a rate of 7.7 Gray/min in 6 cm dishes. For UV radiation, cells were washed with PBS and exposed to 25 J/m^2 UV (265 nm) radiation in a Stratalinker (Stratagene) without a lid. After UV radiation, cells were incubated in media until harvest. For immunoblotting as described in FIG. 2B, cells were harvested 1 hr post-UV. MMS and etoposide (0.01% w/v and 50 μg/ml, respectively) were added to the media and cells were incubated for 1 hr before harvesting.
(§2) To stain cells for immunofluorescence, tissue culture cells plated on dishes with coverslips were washed twice with PBS, fixed with 2% paraformaldehyde in PBS (stored at −20° C.) for 10 minutes at room temperature (RT), washed twice with PBS and permeabilized with 0.5% NP-40 in PBS for 10 minutes at RT and washed three times with PBS. Cells were processed immediately or stored at 4° C. wrapped in PBS with sodium azide. […]

[2] = system: Rif1 foci; assay: UV-induced Rif1 foci by indirect immunofluorescence; details: aphidicolin after the UV irradiation
Description: as §1, §2

[3] = system: Rif1 foci; assay: Rif1 foci after drug treatment, immunofluorescence; details: MMS 0.01% w/v, etoposide 50 μg/ml, 1 hr; hydroxyurea prolonged incubation
Description: as §1
To stain cells for immunofluorescence, tissue culture cells plated on dishes with coverslips were washed twice with PBS, fixed with 2% paraformaldehyde in PBS (stored at −20° C.) for 10 minutes at room temperature (RT), washed twice with PBS and permeabilized with 0.5% NP-40 in PBS for 10 minutes at RT and washed three times with PBS. Cells were processed immediately or stored at 4° C. wrapped in PBS with sodium azide. Coverslips were placed on parafilm in a humidified tray and blocked with PBG (0.2% (w/v) cold water fish gelatin (Sigma), 0.5% (w/v) BSA (Sigma) in PBS (stored at −20° C.) for 30 minutes at RT. Cells were then incubated with primary antibody diluted in PBG for 3 hours at RT, washed three times with PBG for 5 minutes at RT, incubated with secondary antibody diluted 1:100 in PBG for 40 minutes at RT, washed three times with PBG for 5 minutes at RT (with the last wash containing DAPI ([…]). Coverslips were then washed twice with PBS and mounted on glass slides in mounting media and sealed with nail polish.

SMILES | 53BP1 foci after UV [1] | Rif1 foci after UV [2] | Rif1 foci formation after treatment [3]
C[C@@]1(CO)[C@H](O)CC[C@@]2(C)[C@H]1CC[C@H]1C[C@@H]3C[C@@]12CC[C@]3(O)CO [Aphidicolin] | still detectable | fail to form Rif1 foci after UV | 
COS(C)(=O)=O [MMS] |  |  | forms foci
COc1cc([C@@H]2c3cc4c(cc3[C@@H](O[C@@H]3O[C@@H]5CO[C@@H](C)O[C@H]5[C@H](O)[C@H]3O)[C@H]3COC(=O)[C@H]23)OCO4)cc(OC)c1O [etoposide] |  |  | forms foci
NC(=O)NO [hydroxyurea] |  |  | forms foci
